{"source": "patent US11759471B2", "about": "“Modified release pharmaceutical composition and method for the treatment of mental disorders” (MEDICAL AND PHARMACEUTICAL INDUSTRY TECHNOLOGY AND …, priority 2019, dated 2023)", "key": {"[1]": {"assay": "Dissolution of methacrylic acid coated samples in pH1.2 solvent", "format": "physicochemical", "settings": "methacrylic acid coated samples with different encapsulation efficiency", "method": "Further use carried out with different encapsulation efficiency of experiments, and the samples with different encapsulation efficiency were test pH1.2 solvent dissolve. At the same time, it can be known that the results of the dissolution rate of paliperidone within 2 hours is not more than 10%. The present invention can be achieved effect of delayed release of paliperidone."}, "[2]": {"settings": "as measured by blood concentration; cited from earlier work"}, "[3]": {"assay": "In vitro dissolution test, USP Apparatus 2 (paddle)", "format": "physicochemical", "settings": "FIG. 1, 3 mg paliperidone in raw form", "method": "In vitro dissolution test was conducted in a USP Apparatus 2 (paddle) at 37±0.5° C., 50 rpm, in a solution having 750 mL of 0.1 N HCl and 1000 mL of pH 6.8 buffer\nFIG. 1 discloses the dissolution release amount for 25 mg quetiapine in tablet of reference listed drug, 3 mg paliperidone in raw form."}}, "data": [{"molecule": "Cc1nc2n(c(=O)c1CCN1CCC(c3noc4cc(F)ccc34)CC1)CCCC2O", "note": "(stereo not shown) [paliperidone]", "values": [{"measurement": "dissolution rate of paliperidone within 2 hours", "setting": "[1]", "value": "not more than 10%"}, {"measurement": "half-life in patients' blood", "setting": "[2]", "value": "20 to 28", "unit": "h"}, {"measurement": "dissolution amount of paliperidone after pH change", "setting": "[3]; after 120 minutes, pH increased from 1.2 to 6.8, slightly decreased", "value": "above 100%"}, {"measurement": "dissolution amount of paliperidone", "setting": "[3]; less than 10 minutes, then maintained, pH 1.2", "value": "above 100%"}]}]}
